Assay results reported in patent US20120004122A1, “Diagnostic Marker for Migraine and Use Thereof” (priority 2005, published 2012).

What follows are compounds tested on α-fodrin gene (assay: α-fodrin gene expression in lymphocyte-derived immortalized cells before and after drug administration (real-time PCR)). Details: EB virus-immortalized cells derived from lymphocytes of the migraine group and the healthy group; before vs after administration of the drug to cells in culture; FIG. 2.
Type: cell-based, human
Text: Peripheral bloods were harvested from 5 patients having an aura of migraine, as diagnosed according to the International Classification of Headache Disorders 2nd Edition (ICHD-II) of the International Headache Society as well as from 5 healthy subjects constituting a control group who are matched with the 5 patients in terms of age and sex. From the migraine subjects, their bloods were drawn during an interval between migraine attacks. Their lymphocytes were isolated by centrifugation from the peripheral bloods collected from each group.
The lymphocytes of each group were infected by adding 1 mL of EB virus supernatant (the culture supernatant of B958 cells, EB virus-producing cells) to the lymphocytes at 2×10^6 cells and 2 μL of 100-fold diluted cyclosporin solution (original solution of cyclosporin (Sandimmun 1A (5 ml) 250 mg) to the lymphocytes at 2×10^6 cells, followed by incubation in RPMI(+) medium for about four days. Then, cell lines established by continuous passaging in the same medium were used as the lymphocyte-derived immortalized cells in the present invention. These immortalized cells were used for the following experiments under the same conditions of culture condition, number of passages, etc.
Thus, the gene expression levels of α-fodrin and HPCAL1 were examined by performing quantitative real-time PCR using immortalized lymphocytes obtained from the migraine and healthy subjects as samples. […] The expression level of each gene was relatively quantified by the comparative Ct (threshold cycle) method based on the amplification curve obtained from the PCR.
Immortalized cells derived from lymphocytes of the migraine group and the healthy group were subjected to mRNA expression analysis in the same manner as described above. […] By using part of the immortalized cells before and after the administration of each drug, the expression level of α-fodrin gene was analyzed.

Compound | expression level of α-fodrin gene
NC(N)=Nc1nc(CSCCC(N)=NS(N)(=O)=O)cs1 [Gaster, famotidine] | increased the expression level of α-fodrin
CC(=O)Oc1ccccc1C(=O)O [aspirin] | reduced the expression level of α-fodrin
CNS(=O)(=O)Cc1ccc2[nH]cc(CCN(C)C)c2c1 [sumatriptan] | reduced the expression level of α-fodrin
